ChEMBL document CHEMBL5108044, “Discovery of a Novel Potent STAT3 Inhibitor HP590 with Dual p-Tyr705/Ser727 Inhibitory Activity for Gastric Cancer Treatment” (J Med Chem, 2022)

What was measured:
[1] = biological target: Signal transducer and activator of transcription 3 (Homo sapiens, UniProt P40763); assay: Inhibition of human recombinant STAT3 (127 to 722 residues) transcriptional activity expressed in HEK293T cells in presence of IL-6 by Dual-luciferase reporter gene assay; type: cell-based
Signal transducer and activator of transcription 3, sequence (P40763 whole entry, the tested form may be a part): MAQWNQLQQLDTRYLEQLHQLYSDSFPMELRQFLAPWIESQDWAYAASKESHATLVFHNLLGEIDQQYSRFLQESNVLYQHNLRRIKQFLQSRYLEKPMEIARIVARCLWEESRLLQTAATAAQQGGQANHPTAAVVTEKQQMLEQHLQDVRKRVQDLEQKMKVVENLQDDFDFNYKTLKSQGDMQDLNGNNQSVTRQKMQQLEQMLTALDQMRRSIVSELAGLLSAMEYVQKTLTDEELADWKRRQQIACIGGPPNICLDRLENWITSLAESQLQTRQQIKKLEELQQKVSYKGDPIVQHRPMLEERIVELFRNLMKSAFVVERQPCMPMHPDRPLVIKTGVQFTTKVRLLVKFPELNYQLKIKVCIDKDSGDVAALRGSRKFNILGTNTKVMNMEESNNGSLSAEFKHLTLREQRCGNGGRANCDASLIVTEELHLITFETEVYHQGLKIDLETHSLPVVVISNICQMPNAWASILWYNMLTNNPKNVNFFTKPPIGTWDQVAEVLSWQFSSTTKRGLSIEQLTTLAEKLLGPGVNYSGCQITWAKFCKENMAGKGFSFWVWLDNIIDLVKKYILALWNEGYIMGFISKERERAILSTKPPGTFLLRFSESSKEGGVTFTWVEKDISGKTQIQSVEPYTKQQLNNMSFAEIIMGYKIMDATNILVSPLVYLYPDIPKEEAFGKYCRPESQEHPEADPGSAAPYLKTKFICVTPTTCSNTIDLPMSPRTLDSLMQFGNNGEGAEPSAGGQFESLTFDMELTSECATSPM

AGS = assay: Antiproliferative activity against human AGS cells assessed as reduction in cell viability incubated for 72 hrs by MTS assay; type: functional, cell-based
[2] = Inhibition of ATP production in human MKN-45 cells incubated for 20 to 24 hrs by ATP assay kit method; type: functional, cell-based
MKN-45 = assay: Antiproliferative activity against human MKN-45 cells assessed as reduction in cell viability incubated for 72 hrs by MTS assay; type: functional, cell-based; conditions: MKN-45, 72 h
MGC-803 = assay: Antiproliferative activity against human MGC-803 cells assessed as reduction in cell viability incubated for 72 hrs by MTS assay; type: functional, cell-based; conditions: MGC-803, 72 h

Compound | IC50 [1] [nM] | further results
CN1CCN(C(=O)c2ccc(-c3nc(-c4ccc(C(F)(F)F)cc4)no3)nc2)CC1 | 2790 | 
COc1ccc(-c2noc(-c3ccc(C(=O)N4CCN(Cc5ccc(OCC(F)(F)F)cc5)CC4)cn3)n2)cc1 | 113 | 
O=C(c1ccc(-c2nc(-c3ccc(C(F)(F)F)cc3)no2)nc1)N1CCN(Cc2cccc(OC(F)(F)F)c2)CC1 | 325 | 
CCCN1CCN(C(=O)c2ccc(-c3nc(-c4ccc(C(F)(F)F)cc4)no3)nc2)CC1 | 533 | 
O=C(c1ccc(-c2nc(-c3ccc(C(F)(F)F)cc3)no2)nc1)N1CCN(Cc2c(F)cc(Br)cc2F)CC1 | > 1000 | 
O=C(c1ccc(-c2nc(-c3cncs3)no2)nc1)N1CCN(Cc2ccc(OCC(F)(F)F)cc2)CC1 | > 1000 | 
O=C(c1ncc(-c2nc(-c3ccc(C(F)(F)F)cc3)no2)s1)N1CCN(Cc2ccc(OCC(F)(F)F)cc2)CC1 | > 1000 | 
O=C(c1cc(-c2nc(-c3ccc(C(F)(F)F)cc3)no2)ccn1)N1CCN(Cc2ccc(OCC(F)(F)F)cc2)CC1 | 32.3 | IC50 (AGS): 8.7 nM; IC50 [2]: 87.6 nM; IC50 (MKN-45): 153 nM; IC50 (MGC-803): 13.1 nM
O=C(c1ccc(-c2nc(-c3ccc(C(F)(F)F)cc3C(F)(F)F)no2)nc1)N1CCN(Cc2ccc(OCC(F)(F)F)cc2)CC1 | > 1000 | 
Nc1ccc(CN2CCN(C(=O)c3ccc(-c4nc(-c5ccc(C(F)(F)F)cc5)no4)nc3)CC2)cc1 | > 1000 | 
O=C(c1ccc(-c2nc(-c3ccc(C(F)(F)F)cc3)no2)nc1)N1CCN(Cc2ccccc2OC(F)(F)F)CC1 | > 1000 | 
Cc1ccc(-c2noc(-c3ccc(C(=O)N4CCN(Cc5ccc(OCC(F)(F)F)cc5)CC4)cn3)n2)cc1 | 258 | 
O=C(c1ccc(-c2nc(-c3cccc(F)c3)no2)nc1)N1CCN(Cc2ccc(OCC(F)(F)F)cc2)CC1 | 177 | 
O=C(c1ccc(-c2nc(-c3ccc(C(F)(F)F)cc3)no2)nc1)N1CCN(Cc2ccc(OC(F)(F)F)cc2)CC1 | 63.6 | IC50 (AGS): 59.8 nM; IC50 [2]: 598 nM; IC50 (MKN-45): 16.4 nM; IC50 (MGC-803): 12.7 nM
O=C(c1ccc(-c2nc(-c3ccc(C(F)(F)F)cc3)no2)nc1)N1CCN(Cc2cccc(OCC(F)(F)F)c2)CC1 | 803 | 
O=C(c1cnc(-c2noc(-c3ccc(C(F)(F)F)cc3)n2)cn1)N1CCN(Cc2ccc(OCC(F)(F)F)cc2)CC1 | 58 | IC50 (AGS): 27.2 nM; IC50 [2]: 242 nM; IC50 (MKN-45): 49.5 nM; IC50 (MGC-803): 32.4 nM
O=C(c1ccc(-c2nc(-c3ccc(C(F)(F)F)cc3)no2)s1)N1CCN(Cc2ccc(OCC(F)(F)F)cc2)CC1 | 167 | 
CC(C)(C)c1ccc(-c2noc(-c3ccc(C(=O)N4CCN(Cc5ccc(OCC(F)(F)F)cc5)CC4)cn3)n2)cc1 | > 1000 | 
O=C(c1ccc(-c2nc(-c3ccc(Cl)cc3)no2)nc1)N1CCN(Cc2ccc(OCC(F)(F)F)cc2)CC1 | 271 | 
O=C(c1ccc(-c2nc(-c3ccc(C(F)(F)F)cc3)no2)nc1)N1CCN(Cc2ccc(Br)cc2F)CC1 | 564 | 
O=C(c1ccc(-c2nc(-c3ccc(C(F)(F)F)cc3)no2)cn1)N1CCN(Cc2ccc(OCC(F)(F)F)cc2)CC1 | 75.9 | IC50 (AGS): 22.8 nM; IC50 [2]: 97.8 nM; IC50 (MKN-45): 24.6 nM; IC50 (MGC-803): 15.3 nM
O=C(c1ccc(-c2nc(-c3ccccc3F)no2)nc1)N1CCN(Cc2ccc(OCC(F)(F)F)cc2)CC1 | > 1000 | 
O=C(c1ccc(-c2nc(-c3ccc(C(F)(F)F)cc3)no2)nc1)N1CCN(Cc2ccccc2OCC(F)(F)F)CC1 | > 1000 | 
O=C(c1ccc(OC(F)(F)F)cc1)N1CCN(C(=O)c2ccc(-c3nc(-c4ccc(C(F)(F)F)cc4)no3)nc2)CC1 | > 1000 | 
O=C(c1ccc(-c2nc(-c3ccccc3C(F)(F)F)no2)nc1)N1CCN(Cc2ccc(OCC(F)(F)F)cc2)CC1 | > 1000 | 
O=C(Cc1ccc(OC(F)(F)F)cc1)N1CCN(C(=O)c2ccc(-c3nc(-c4ccc(C(F)(F)F)cc4)no3)nc2)CC1 | 359 | 
O=C(c1ccc(-c2nc(-c3ccc(C(F)(F)F)c(F)c3)no2)nc1)N1CCN(Cc2ccc(OCC(F)(F)F)cc2)CC1 | 40.2 | IC50 (AGS): 21.5 nM; IC50 [2]: 218 nM; IC50 (MKN-45): 21.2 nM; IC50 (MGC-803): 22.2 nM
